Measurements taken from patent US5486516A, “Furopyrimidine derivatives” (DowElanco, priority 1993, dated 1996).

Tests used:
[1] = tested on: Pyricularia oryzae (rice blast); assay: whole plant or invertebrate; type: in vivo; details: foliar, read-out: RICE BLAST control rating
[2] = tested on: Southern corn rootworm (Diabrotica undecimpuctata howardi Barber); assay: Mite/insect screen, corn rootworm; type: in vivo; details: Diabrotica, soil, read-out: CRW results (percent mortality); for mortality at 12 ppm: CRW rate 12.00 ppm; for mortality at 24 ppm: CRW rate 24.00 ppm
Method in brief: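 Compound in acetone/alcohol with emulsifiers, diluted with water; 1 mL applied to 15 g dry sandy soil holding a presoaked corn seed. After 6–12 h drying, five 2-3 instar larvae added, held at 23° C; percent mortality and phytotoxicity scored after standard exposure periods.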

[3] = tested on: southern armyworm (Spodopetra eridania Cramer); assay: Mite/insect screen, Southern armyworm; type: in vivo; details: Spodoptera eridania, sprayed leaves, read-out: SAW results (percent mortality); for mortality at 200 ppm: rate 200 ppm; for mortality at 400 ppm: rate 400 ppm
Method in brief: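 Compounds in acetone/alcohol with Toximul emulsifiers, diluted in water, sprayed to runoff on squash leaves at 10 psi and dried 1 h. Excised treated leaves fed to southern armyworm larvae in Petri dishes; percent mortality scored after standard exposure.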

[4] = tested on: Twospotted spider mites (Tetranychus urticae Koch); assay: Mite/insect screen, twospotted spider mites; type: in vivo; details: Tetranychus urticae, sprayed leaves, read-out: SM results (percent mortality); for mortality at 200 ppm: rate 200 ppm; for mortality at 400 ppm: rate 400 ppm
Method in brief: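 Squash cotyledons infested with mites were sprayed to runoff at 10 psi with compound in acetone/alcohol plus emulsifiers, diluted in water to the stated concentrations. Percent mortality and phytotoxicity were scored after standard exposure periods.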

[5] = tested on: melon aphids (Aphis gossvpii Glover); assay: Mite/insect screen, melon aphids; type: in vivo; details: Aphis, sprayed leaves, read-out: MA results (percent mortality); for mortality at 200 ppm: rate 200 ppm; for mortality at 400 ppm: rate 400 ppm
Method in brief: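 Aphids established on squash cotyledons were sprayed to runoff with compound in acetone/alcohol with sulfonate/nonionic emulsifiers, diluted in water to test concentrations. Leaves dried 1 h. Percent mortality scored after standard exposure periods.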

[6] = tested on: Puccinia recondita tritici (leaf rust); assay: Plant pathology screen (Test 1), leaf rust on wheat; details: in Triticum aestivum, foliar, read-out: LEAF RUST control rating
[7] = tested on: Pseudoperonospora cubensis (downy mildew); assay: Plant pathology screen (Test 1), downy mildew on squash; details: foliar, read-out: DOWN MDEW control rating
Method: (§1) The test compounds were formulated for application by dissolving 50 mg of the compound into 1.25 ml of solvent. The solvent was prepared by mixing 50 ml of "Tween 20" (polyoxyethylene (20) sorbitan monolaurate emulsifier) with 475 ml of acetone and 475 ml of ethanol. The solvent/compound solution was diluted to 125 ml with deionized water. The resulting formulation contains 400 ppm test chemical. Lower concentrations were obtained by serial dilution with the solvent-surfactant mixture.
The formulated test compounds were applied by foliar spray. The following plant pathogens and their corresponding plants were employed.
(§2) The formulated technical compounds were sprayed on all foliar surfaces of the host plants (or cut berry) to past run-off. Single pots of each host plant were placed on raised, revolving pedestals in a fume hood. Test solutions were sprayed on all foliar surfaces. All treatments were allowed to dry and the plants were inoculated with the appropriate pathogens within 2-4 hours.
(§3) The effectiveness of test compounds in controlling disease was rated using the following scale.

[8] = tested on: Erysiphe graminis tritici (powdery mildew); assay: Plant pathology screen (Test 1), powdery mildew on wheat; details: Blumeria graminis, in Triticum aestivum, foliar, read-out: POWD MDEW control rating
Method: as §1
The formulated test compounds were applied by foliar spray.
as §2, §3

[9] = tested on: Botrytis cinerea (gray mold); assay: Plant pathology screen (Test 1), gray mold on grape berries; details: read-out: GRAY MOLD control rating

Row | Structure (SMILES) | pest or weed control at 400 µg/mL [1] [%] | mortality at 12 ppm [2] [%] | mortality at 24 ppm [2] [%] | mortality at 200 ppm [3] [%] | mortality at 400 ppm [3] [%] | mortality at 200 ppm [4] [%] | mortality at 400 ppm [4] [%] | mortality at 200 ppm [5] [%] | mortality at 400 ppm [5] [%] | pest or weed control at 400 µg/mL [6] [%] | pest or weed control at 400 µg/mL [7] [%] | pest or weed control at 400 µg/mL [8] [%] | pest or weed control at 400 µg/mL [9] [%]
1 | Cc1oc2ncnc(Oc3ccc(F)cc3)c2c1C [Example 49, 5,6-dimethyl-4-(4-fluorophenoxy)furo[2,3-d]pyrimidine] | 0 to 19 | 0 | 0 | 80 | 0 | 0 | 0 | 0 | 0 | 90 to 100 | 0 to 19 | 90 to 100 | 0 to 19
2 | Cc1oc2ncnc(OCCc3ccc(C(C)(C)C)cc3)c2c1C [Example 50, 4-[2-[4-(t-butyl)phenyl]ethoxy]-5,6-dimethylfuro[2,3-d]pyrimidine] | 20 to 89 | 0 | 0 | 0 | 0 | 0 | 100 | 0 | 100 | 20 to 89 | 20 to 89 | 20 to 89 | 0 to 19
3 | Cc1oc2ncnc(OCCc3ccc(-c4ccccc4)cc3)c2c1C [Example 51, 4-[2-[4-biphenylyl]ethoxy]-5,6-dimethylfuro[2,3-d]pyrimidine] | 0 to 19 | 0 | 0 | 0 | 0 | 100 | 80 | 90 | 80 | 0 to 19 | 90 to 100 | 0 to 19 | 0 to 19
4 | COc1ccc(CCOc2ncnc3oc(C)c(C)c23)cc1 [Example 52, 4-[2-(4-methoxyphenyl)ethoxy]-5,6-dimethylfuro[2,3-d]pyrimidine] | 90 to 100 | 0 | 0 | 0 | 0 | 0 | 0 | 80 | 100 | 90 to 100 | 90 to 100 | 90 to 100 | 0 to 19
5 | Cc1oc2ncnc(OCCc3ccc(Cl)cc3)c2c1C [Example 53, 4-[2-(4-chlorophenyl)ethoxy]-5,6-dimethylfuro[2,3-d]pyrimidine] | 20 to 89 | 0 | 0 | 0 | 0 | 0 | 30 | 0 | 60 | 90 to 100 | 0 to 19 | 20 to 89 | 0 to 19
6 | Cc1oc2ncnc(OCCc3ccc(C(F)(F)F)cc3)c2c1C [Example 54] | 90 to 100 | 0 | 0 | 0 | 40 | 100 | 60 | 100 | 40 | 90 to 100 | 0 to 19 | 90 to 100 | 0 to 19
